Data published in patent US20110092546A1, “SUBSTITUTED BENZIMIDAZOLES FOR NEUROFIBROMATOSIS” (NOVARTIS AG, priority 2008, published 2011).
pEC50: −log10 of the molar value. Read-outs that look alike come from different tables or passages of the source.

Experiments:
[1] = system: ST88 cells; details: ST88 cells (NF1+/−); cited from earlier work
[2] = system: NF90 cells; details: NF90 cells (NF1+/−); cited from earlier work
[3] = system: phospho-ERK in ST88 cells; experiment: phospho-ERK ELISA in ST88 cells; format: cell-based
Source text: (§1) The ST88 cell line (NF1^+/−) contains elevated levels of Ras-GTP and is often used as a pre-clinical model for NF1. […] Pathway inhibition and anti-proliferative activity of RAF265 in ST88 cells.

[4] = system: phospho-MEK in ST88 cells; experiment: phospho-MEK ELISA in ST88 cells; format: cell-based
Source text: as §1

[5] = system: VEGF-induced angiogenesis in Matrigel plug; experiment: VEGF-CHO Matrigel plug angiogenesis model in mice (hemoglobin, Drabkin's reagent); format: in vivo; details: treated days 1 and 4, plugs excised day 5
Source text: Due to the inhibition of VEGFR-2, RAF265 also has anti-angiogenic activity which may also provide a therapeutic benefit in treating neurofibromas. To confirm that RAF265 inhibits the growth of new blood vessels (i.e., angiogenesis) in vivo, mice were implanted with Matrigel® containing Chinese hamster ovary cells (CHO) overexpressing VEGF and then treated mice with a dose range of RAF265 or a vehicle control (days 1 and 4). In this model, VEGF expressed from the CHO cells induces angiogenesis within the Matrigel® plug. Plugs are excised on day 5 and assayed for hemoglobin using Drabkin's reagent, as a measure of the degree of angiogenesis.

[6] = system: ST88 cells; experiment: Proliferation of ST88 cells; format: cell-based
Source text: as §1

| SMILES | effect on proliferation (in words) [1] | levels of phospho-ERK (in words) [1] | effect on proliferation (in words) [2] | levels of phospho-ERK (in words) [2] | levels of phospho-ERK after treatment (in words) ([3]; ST88 cells) | pEC50 ([3]; ST88 cells (NF1+/−)) | levels of phospho-MEK after treatment (in words) ([4]; ST88 cells) | pEC50 ([4]; ST88 cells (NF1+/−)) | dose giving maximal suppression of hemoglobin content [5] [mg/kg] | hemoglobin content of Matrigel plug (in words) [5] | effect on proliferation (in words) ([6]; ST88 cells) | pEC50 ([6]; ST88 cells (NF1+/−)) |
| --- | --- | --- | --- | --- | --- | --- | --- | --- | --- | --- | --- | --- |
| O=C(NOCC1CC1)c1ccc(F)c(F)c1Nc1ccc(I)cc1Cl [CI-1040] | inhibited proliferation | decreased levels of phospho-ERK | inhibited proliferation | decreased levels of phospho-ERK |  |  |  |  |  |  |  |  |
| Cn1c(Nc2ccc(C(F)(F)F)cc2)nc2cc(Oc3ccnc(-c4ncc(C(F)(F)F)[nH]4)c3)ccc21 [Example 1] |  |  |  |  | decreased levels | 6.73 | decreased levels | 6.82 | 50 | dose-dependent decrease | inhibition of proliferation | 6.68 |
